Data on 16 compounds can be found in patent US12310975B2, “Modulators of BCL6 proteolysis and associated methods of use” (Arvinas Operations, Inc., priority 2019, dated 2025).

In test [1] the target is T1, BCL6 (Homo sapiens (Human), UniProt P41182). In words: Immunofluorescence high content imaging of BCL6 degradation in T47D cells. It is filed as cell-based. To be noted: for Dmax: T47D; for DC50: class symbols A-D, read-out: EC50 (nM)*. The procedure, abridged:
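T47D cells were treated 3 days at 37 °C with an 11-point 3-fold dilution series (top 0.1 or 1 μM), then fixed, permeabilized and immunostained for BCL6 with Alexa-488 secondary, CellMask and Hoechst. BCL6 signal was imaged at 10×, 4 fields/well, with top-hat smoothing.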

Test [2] concerns the target T1, BCL6. In words: BCL6 TR-FRET assay (BCL6-Avitag-Biotin / BCoR-Cy5 peptide). It is filed as binding. The conditions noted are these: for IC50: class symbols A-D, read-out: IC50 (nM)***; for pIC50: read-out: IC50. The procedure, abridged: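 TR-FRET displacement assay: biotinylated His-SUMO-BCL6-Avitag (2 nM) pre-incubated 30 min at room temperature with compound (12-point 3-fold titration), then BCoR-Cy5 peptide (100 nM) and Eu-streptavidin (2 nM) added. Buffer: 50 mM HEPES pH 7.5, 125 mM NaCl, 0.01% Triton X, glutathione or DTT, 0.03% BSA. Read after 2 h.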
(In general: In TR-FRET formats the signal depends on donor and acceptor labels being close together.)

pIC50: −log10 of the molar value.

Broadly, the Dmax is the largest share of the target that was removed. A high value points to a fuller loss of target. For orientation: IC50 means the point on the concentration scale where inhibition reaches its midpoint. In general, pIC50 refers to the negative decadic logarithm of the IC50, by convention in mol/L. Usually EC50 stands for the midpoint of the concentration-response curve.

Regarding `CC(=O)COc1cc2cc(Nc3nc(N4CCC(CCN5CCN(c6ccc7c(c6)C(=O)N(C6CCC(=O)NC6=O)C7=O)CC5)CC4)ncc3Cl)ccc2n(C)c1=O` (centres unmarked) [compound 162, 5-(4-(2-(1-(5-chloro-4-((1-methyl-2-oxo-3-(2-oxopropoxy)-1,2-dihydroquinolin-6-yl)amino)pyrimidin-2-yl)piperidin-4-yl)ethyl)piperazin-1-yl)-2-(2,6-dioxopiperidin-3-yl)isoindoline-1,3-dione], on BCL6 [1] (maximum, class symbols A-C), the greatest degradation seen (Dmax) is less than 50%. The DC50 on BCL6 [1] lay in the range of 10 to 50 nM. Further, the IC50 at BCL6 [2] was in the range of 10 to 50 nM.
Consider `CNC(=O)COc1cc2cc(Nc3nc(N4CCN(CC5CCC6(CC5)CN(c5c(F)ccc7c5C(=O)N(C5CCC(=O)NC5=O)C7=O)C6)CC4)ncc3Cl)ccc2n(C(C)C)c1=O` (centres unmarked) [compound 539, 2-{[6-({5-chloro-2-[4-({2-[2-(2,6-dioxopiperidin-3-yl)-5-fluoro-1,3-dioxo-2,3-dihydro-1H-isoindol-4-yl]-2-azaspiro[3.5]nonan-7-yl}methyl)piperazin-1-yl]pyrimidin-4-yl}amino)-2-oxo-1-(propan-2-yl)-1,2-dihydroquinolin-3-yl]oxy}-N-methylacetamide], for which the Dmax at BCL6 [1] lay in the range of 50 to 70%. Further, the pIC50 at BCL6 [2] was more than 8.00.
In turn, `CNC(=O)COc1cc2cc(Nc3nc(N4CCC(CN5CCN(c6ccc7c(c6)CN(C6CCC(=O)NC6=O)C7=O)CC5)CC4)ncc3Cl)ccc2n(C)c1=O` (centres unmarked) [compound 151, 2-((6-((5-chloro-2-(4-((4-(2-(2,6-dioxopiperidin-3-yl)-1-oxoisoindolin-5-yl)piperazin-1-yl)methyl)piperidin-1-yl)pyrimidin-4-yl)amino)-1-methyl-2-oxo-1,2-dihydroquinolin-3-yl)oxy)-N-methylacetamide] returned a Dmax on BCL6 [1] (maximum, class symbols A-C) of 50 to 70%. In addition, the DC50 at BCL6 [1] was in the range of 10 to 50 nM. Also, the IC50 at BCL6 [2] is less than 10 nM.
At BCL6 [1], `CNC(=O)COc1cc2cc(Nc3nc(N4CCN(C(C)(C)C5CCN(c6ccc7c(c6)CN(C6CCC(=O)NC6=O)C7=O)CC5)CC4)ncc3Cl)ccc2n(C)c1=O` (centres unmarked) [compound 270, 2-{[6-({5-chloro-2-[4-(2-{1-[2-(2,6-dioxopiperidin-3-yl)-1-oxo-2,3-dihydro-1H-isoindol-5-yl]piperidin-4-yl}propan-2-yl)piperazin-1-yl]pyrimidin-4-yl}amino)-1-methyl-2-oxo-1,2-dihydroquinolin-3-yl]oxy}-N-methylacetamide] came in with an IC50 of less than 10 nM and a Dmax not below 70%. The compound also returned an EC50 at BCL6 [2] of 10 to 50 nM.
Compound `CNC(=O)COc1cc2cc(Nc3nc(N4CCC(OCCOCCOCCOCCOCCOc5ccc6c(c5)CN(C5CCC(=O)NC5=O)C6=O)CC4)ncc3Cl)ccc2n(C)c1=O` (centres unmarked) [compound 62, 2-((6-((5-chloro-2-(4-((14-((2-(2,6-dioxopiperidin-3-yl)-1-oxoisoindolin-5-yl)oxy)-3,6,9,12-tetraoxatetradecyl)oxy)piperidin-1-yl)pyrimidin-4-yl)amino)-1-methyl-2-oxo-1,2-dihydroquinolin-3-yl)oxy)-N-methylacetamide] had a maximal degradation (Dmax) on BCL6 [1] (maximum, class symbols A-C) not below 70%. Further, on BCL6 [1], the DC50 was more than 100 nM. Besides, the half-maximal inhibitory concentration (IC50) at BCL6 [2] fell in the range of 10 to 50 nM.
For the compound `CNC(=O)COc1cc2cc(Nc3nc(N4CCN(CC5CCN(c6cnc(C(=O)NC7CCC(=O)NC7=O)cn6)CC5)CC4)ncc3Cl)ccc2n(C)c1=O` (centres unmarked) [compound 281, 5-[4-({4-[5-chloro-4-({1-methyl-3-[(methylcarbamoyl)methoxy]-2-oxo-1,2-dihydroquinolin-6-yl}amino)pyrimidin-2-yl]piperazin-1-yl}methyl)piperidin-1-yl]-N-(2,6-dioxopiperidin-3-yl)pyrazine-2-carboxamide], on BCL6 [1], the IC50 is less than 10 nM and the Dmax is less than 50%. At BCL6 [2], this compound returned an EC50 of 10 to 50 nM.
Turning to `CC(=O)COc1cc2cc(Nc3nc(N4CCN(C5CCN(c6ccc7c(c6)C(=O)N(C6CCC(=O)NC6=O)C7=O)CC5)CC4)ncc3Cl)ccc2n(C)c1=O` (centres unmarked) [compound 160, 5-(4-(4-(5-chloro-4-((1-methyl-2-oxo-3-(2-oxopropoxy)-1,2-dihydroquinolin-6-yl)amino)pyrimidin-2-yl)piperazin-1-yl)piperidin-1-yl)-2-(2,6-dioxopiperidin-3-yl)isoindoline-1,3-dione], at BCL6 [1] (maximum, class symbols A-C), the Dmax was 50 to 70%. Besides, on BCL6 [1], the DC50 was 10 to 50 nM. The IC50 at BCL6 [2] was in the range of 10 to 50 nM.
In the case of `CC(=O)COc1cc2cc(Nc3nc(N4CCN(CCCN5CCN(c6ccc7c(c6)C(=O)N(C6CCC(=O)NC6=O)C7=O)CC5)CC4)ncc3Cl)ccc2n(C)c1=O` (centres unmarked) [compound 236, 5-(4-(3-(4-(5-chloro-4-((1-methyl-2-oxo-3-(2-oxopropoxy)-1,2-dihydroquinolin-6-yl)amino)pyrimidin-2-yl)piperazin-1-yl)propyl)piperazin-1-yl)-2-(2,6-dioxopiperidin-3-yl)isoindoline-1,3-dione], at BCL6 [1], the IC50 was in the range of 10 to 50 nM and the Dmax fell in the range of 50 to 70%. For the same compound, the 50% effective concentration (EC50) on BCL6 [2] is less than 10 nM.
In the same order, the values of `CC(=O)[C@@H](C)Oc1cc2cc(Nc3nc(N4CCC(CN5CCN(c6ccc7c(c6)C(=O)N([C@@H]6CCC(=O)NC6=O)C7=O)CC5)CC4)ncc3Cl)ccc2n(C)c1=O` [compound 218, 5-(4-((1-(5-chloro-4-((1-methyl-2-oxo-3-(((R)-3-oxobutan-2-yl)oxy)-1,2-dihydroquinolin-6-yl)amino)pyrimidin-2-yl)piperidin-4-yl)methyl)piperazin-1-yl)-2-((R)-2,6-dioxopiperidin-3-yl)isoindoline-1,3-dione] are not below 100 nM, less than 50% and more than 100 nM.
On BCL6 [1], `CC(=O)[C@H](C)Oc1cc2cc(Nc3nc(N4CCC(CN5CCN(c6ccc7c(c6)C(=O)N([C@@H]6CCC(=O)NC6=O)C7=O)CC5)CC4)ncc3Cl)ccc2n(C)c1=O` [compound 219, 5-(4-((1-(5-chloro-4-((1-methyl-2-oxo-3-(((S)-3-oxobutan-2-yl)oxy)-1,2-dihydroquinolin-6-yl)amino)pyrimidin-2-yl)piperidin-4-yl)methyl)piperazin-1-yl)-2-((R)-2,6-dioxopiperidin-3-yl)isoindoline-1,3-dione] returned an IC50 of 50 to 100 nM and a Dmax of less than 50%. The EC50 at BCL6 [2] is more than 100 nM.
On BCL6 [1], `CNC(=O)COc1cc2cc(Nc3nc(N4CCOCC4)ncc3Cl)ccc2n(CCCOc2ccc3c(c2)C(=O)N(C2CCC(=O)NC2=O)C3=O)c1=O` (centres unmarked) [compound 474, 2-[(6-{[5-chloro-2-(morpholin-4-yl)pyrimidin-4-yl]amino}-1-(3-{[2-(2,6-dioxopiperidin-3-yl)-1,3-dioxo-2,3-dihydro-1H-isoindol-5-yl]oxy}propyl)-2-oxo-1,2-dihydroquinolin-3-yl)oxy]-N-methylacetamide] showed a Dmax of less than 50%. In addition, at BCL6 [2], the pIC50 was 7.00 to 7.30.
On BCL6 [1], `CNC(=O)COc1cc2cc(Nc3nc(N4CCOC(CN5CCN(c6cccc7c6C(=O)N(C6CCC(=O)NC6=O)C7=O)CC5)C4)ncc3Cl)ccc2n(C)c1=O` (centres unmarked) [compound 271, 2-{[6-({5-chloro-2-[2-({4-[2-(2,6-dioxopiperidin-3-yl)-1,3-dioxo-2,3-dihydro-1H-isoindol-4-yl]piperazin-1-yl}methyl)morpholin-4-yl]pyrimidin-4-yl}amino)-1-methyl-2-oxo-1,2-dihydroquinolin-3-yl]oxy}-N-methylacetamide] showed an IC50 of 50 to 100 nM and a Dmax of 50 to 70%. At BCL6 [2], this compound displayed an EC50 of 10 to 50 nM.
`CNC(=O)COc1cc2cc(Nc3nc(N4CCC[C@H](COc5cccc6c5C(=O)N(C5CCC(=O)NC5=O)C6=O)C4)ncc3Cl)ccc2n(CCC2COC2)c1=O` (stereo partly drawn) [compound 504, 2-{[6-({5-chloro-2-[(3S)-3-({[2-(2,6-dioxopiperidin-3-yl)-1,3-dioxo-2,3-dihydro-1H-isoindol-4-yl]oxy}methyl)piperidin-1-yl]pyrimidin-4-yl}amino)-1-[2-(oxetan-3-yl)ethyl]-2-oxo-1,2-dihydroquinolin-3-yl]oxy}-N-methylacetamide] showed a Dmax on BCL6 [1] not below 70%. The pIC50 at BCL6 [2] is 7.00 to 7.30.
For `CC(=O)COc1cc2cc(Nc3nc(N4CCC(CN5CCC(Oc6ccc7c(c6)C(=O)N(C6CCC(=O)NC6=O)C7=O)CC5)C4)ncc3Cl)ccc2n(C)c1=O` (centres unmarked) [compound 154, 5-((1-((1-(5-chloro-4-((1-methyl-2-oxo-3-(2-oxopropoxy)-1,2-dihydroquinolin-6-yl)amino)pyrimidin-2-yl)pyrrolidin-3-yl)methyl)piperidin-4-yl)oxy)-2-(2,6-dioxopiperidin-3-yl)isoindoline-1,3-dione], the Dmax on BCL6 [1] (maximum, class symbols A-C) is less than 50%. In addition, the DC50 on BCL6 [1] was in the range of 10 to 50 nM. Besides, the concentration for half-maximal inhibition (IC50) on BCL6 [2] lay within 50 to 100 nM.
For `CNC(=O)COc1cc2cc(Nc3nc(N4CCN(CC5CCN(c6ccc(C(=O)NC7CCC(=O)NC7=O)nc6)CC5)CC4)ncc3Cl)ccc2n(C)c1=O` (centres unmarked) [compound 232, 5-(4-((4-(5-chloro-4-((1-methyl-3-(2-(methylamino)-2-oxoethoxy)-2-oxo-1,2-dihydroquinolin-6-yl)amino)pyrimidin-2-yl)piperazin-1-yl)methyl)piperidin-1-yl)-N-(2,6-dioxopiperidin-3-yl)picolinamide], on BCL6 [1], the IC50 is 10 to 50 nM and the Dmax is less than 50%. This compound also displayed an EC50 on BCL6 [2] of more than 100 nM.
At BCL6 [1], `CNC(=O)COc1cc2cc(Nc3nc(N(C)C)ncc3Cl)ccc2n(CCOc2ccc3c(c2)C(=O)N(C2CCC(=O)NC2=O)C3=O)c1=O` (centres unmarked) [compound 470, 2-[(6-{[5-chloro-2-(dimethylamino)pyrimidin-4-yl]amino}-1-(2-{[2-(2,6-dioxopiperidin-3-yl)-1,3-dioxo-2,3-dihydro-1H-isoindol-5-yl]oxy}ethyl)-2-oxo-1,2-dihydroquinolin-3-yl)oxy]-N-methylacetamide] came in with a Dmax of less than 50%. Also, on BCL6 [2], the pIC50 was 7.30 to 8.00.
